Assay results from publication PMC8034593 (The FEBS journal, 2020).

Molecular target: KanJ (kanamycin B dioxygenase) (Streptomyces kanamyceticus, UniProt Q6L732)
Test: isothermal titration calorimetry
Assay type: binding

Sequence of KanJ (kanamycin B dioxygenase) (Q6L732 whole entry): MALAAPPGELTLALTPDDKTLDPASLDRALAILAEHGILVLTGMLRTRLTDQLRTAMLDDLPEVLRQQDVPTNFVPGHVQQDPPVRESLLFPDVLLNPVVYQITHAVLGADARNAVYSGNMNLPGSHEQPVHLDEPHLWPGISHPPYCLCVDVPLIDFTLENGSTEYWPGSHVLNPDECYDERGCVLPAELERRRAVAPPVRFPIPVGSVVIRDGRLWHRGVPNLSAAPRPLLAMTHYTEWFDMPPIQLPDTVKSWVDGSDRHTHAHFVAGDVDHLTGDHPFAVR

Kd: 1.54 µM
SMILES: NC[C@H]1O[C@H](O[C@H]2[C@H](O)[C@@H](O[C@H]3O[C@H](CO)[C@@H](O)[C@H](N)[C@H]3O)[C@H](N)C[C@@H]2N)[C@H](N)[C@@H](O)[C@@H]1O [KAN, kanamycin B]
